From US20260224462A1, “ANTI-AGING COMPOSITION” (MITSUBISHI CORPORATION LIFE SCIENCES LIMITED, priority 2023, published 2026) come the findings set out here.

Holding throughout (assay type): cell-based
The subject of one assay is B16 mouse melanoma cells. The experiment in a line: Melanin production suppression test in cultured cells. Conditions: FIG. 5; for melanin production amount compared with the reference sample (absorbance at 405 nm): 0.02 mM or 0.05 mM at melanin induction with α-MSH 200 nM, p<0.01; for concentration needed for melanin production suppressing effect compared with kojic acid (1 mM) and reduced glutathione (3 mM): 0.02 mM or 0.05 mM of sample. The protocol:
B16 mouse melanoma cells were seeded in a 6 well plate (2.0×10^4 cells/well), and cultured for 24 hours in D-MEM medium to which 5% fetal bovine serum was added with respect to the medium (5% CO2, 37° C.). […] The obtained pellets were washed twice with PBS (−), 150 μL of a 1 M sodium hydroxide solution was then added, and the mixture was treated at 100° C. for 10 minutes to dissolve the pellets, thereby preparing a reference sample. […] One hundred μL of a sample of each test section was added to a 96 well plate, and the absorbance at 405 nm was measured with a microplate reader (n=3). […] The significant difference test was performed on the measured value of the reference sample by the Dunnett method (*p<0.05, **p<0.01.).

In assay [1] the test system is Normal human fibroblasts. The experiment in a line: Suppression of decrease in hyaluronic acid production capability due to aging induction, fibroblasts (ELISA). Conditions: 50 μM or 100 μM, 0.5 mM hydrogen peroxide; for amount of hyaluronic acid compared with test section of only aging induction: 24 h, ELISA, p<0.05, FIG. 3; for hyaluronic acid production capability compared with test sections that did not induce aging: no significant difference between the two groups, FIG. 3. The protocol: Normal human fibroblasts were seeded in 24 well plates (8.0×10^4 cells/well, N=3) and precultured for 24 hours (5% CO2, 37° C.). As a medium, MEM-α, nucleosides medium (Gibco) containing fetal bovine serum (10% of serum-free medium was externally added) was used. Thereafter, the wells were washed once with PBS (−), then replaced with MEM-α, nucleoside medium containing fetal bovine serum (5% of serum-free medium was externally added) dissolved so that the final concentration of Sample 1 or Sample 2 was 50 μM or 100 μM, and further incubated for 30 minutes. Thereafter, fibroblasts were treated with a medium adjusted so that the final concentration of hydrogen peroxide was 0.5 mM to induce aging. Thereafter, the culture medium was changed to MEM-α, nucleoside medium containing fetal bovine serum (5% of serum-free culture medium was externally added) and incubated for 24 hours, and then the amount of hyaluronic acid was quantified by ELISA using a hyaluronic acid quantification kit (Cosmo Bio Inc.).
The hyaluronic acid production amount in each test section was shown as a relative value when the hyaluronic acid production amount in each sample and the test section in which aging induction was not performed was taken as 100. Regarding the hyaluronic acid production amount, a significant difference test (t-test, two-tailed) between the two groups of the test section for Sample 1 and the test section for which only the aging induction was performed respectively, and a significant difference test between the test section for Sample 2 and the test section for which only the aging induction was performed were each performed, and “*(p<0.05)” was marked for those in which a significant difference was recognized.
Background: In an ELISA, binding on a coated surface is turned into a signal by an enzyme label.

The test system of assay [2] is Normal human epidermal keratinocytes. The experiment in a line: Suppression of decrease in hyaluronic acid production capability due to aging induction, keratinocytes (ELISA). Conditions: 50 μM, 0.5 mM hydrogen peroxide. The protocol: Normal human epidermal keratinocytes were seeded in 24 well plates (1.0×10^5 cells/well, N=3) and precultured for 24 hours (5% CO2, 37° C.). As a medium, a commercially available keratinocyte growth medium (PromoCell) was used. Thereafter, the wells were washed once with PBS (−), then replaced with a keratinocyte growth medium dissolved so that the final concentration of Sample 1 was 50 μM, and further incubated for 30 minutes. Thereafter, normal human epidermal keratinocytes were treated with a medium adjusted to have a final concentration of hydrogen peroxide of 0.5 mM to induce aging. Thereafter, the medium was replaced with a new keratinocyte growth medium and incubated for 24 hours, and then the amount of hyaluronic acid was quantified by an ELISA method using a hyaluronic acid quantification kit (Cosmo Bio). For comparison, a test section not treated with oxidized glutathione trisulfide was provided.
The hyaluronic acid production amount in each of the test sections was shown as a relative value when the hyaluronic acid production amount in the test section in which neither oxidized glutathione trisulfide treatment nor aging induction was performed was taken as 100. […]

For assay [3] the test system is unchanged. The experiment in a line: Suppression of decrease in proliferation capability of aging-induced normal human epidermal keratinocytes (MTT assay). Particulars: 50 μM or 100 μM, aging induced with 0.5 mM hydrogen peroxide; compared with only aging induction; FIG. 2. (Formazan colour is commonly taken as a measure of viable cells.)
Experimental: Normal human epidermal keratinocytes were seeded in 96 well plates (1.0×10^4 cells/well, N=3) and precultured for 24 hours (5% CO2, 37° C.). As a medium, a commercially available keratinocyte growth medium (PromoCell) was used. Thereafter, the wells were washed once with PBS (−), then replaced with a keratinocyte growth medium dissolved so that the final concentration of Sample 1 was 50 μM or 100 μM, and further incubated for 30 minutes. […] Thereafter, an MTT assay was performed according to a conventional method, and the survival rate of normal human epidermal keratinocytes was calculated as a relative value when the survival rate of cells in a test section in which neither the treatment with oxidized glutathione trisulfide nor the aging induction was performed was taken as 100. For comparison, a test section in which only aging induction was performed without treatment with oxidized glutathione trisulfide was set. Regarding the survival rate, a significant difference test (t-test, two-tailed) between the two groups of the test section of Sample 1 and the test section in which only aging induction was performed was performed respectively.
For assay [4], the system named is Normal human fibroblasts. The experiment in a line: Suppression of decrease in proliferation capability of aging-induced normal human fibroblasts (MTT assay). Particulars: 50 μM or 100 μM, aging induced with 0.5 mM hydrogen peroxide; compared with only aging induction and with 100 μM reduced glutathione; p<0.005; FIG. 1. As for the experimental part: Normal human fibroblasts were seeded in 96 well plates (3.0×10^3 cells/well, N=3) and precultured for 24 hours (5% CO2, 37° C.). As a medium, MEM-α, nucleosides medium (Gibco) containing fetal bovine serum (10% of serum-free medium was externally added) was used. Thereafter, the wells were washed once with PBS (−), then replaced with MEM-α, nucleoside medium containing fetal bovine serum (5% of serum-free medium was externally added) dissolved so that the final concentration of Sample 1 or Sample 2 was 50 μM or 100 μM, and further incubated for 30 minutes. Thereafter, fibroblasts were treated with a medium adjusted so that the final concentration of hydrogen peroxide was 0.5 mM to induce aging. Thereafter, an MTT assay was performed according to a conventional method, and the survival rate of fibroblasts was calculated as a relative value when the survival rate of cells in the test section in which neither treatment nor aging induction was performed was taken as 100.
For comparison, a test section in which only aging induction was performed and a test section in which reduced glutathione was 100 μM was set instead of Sample 1. […]

Assay [5] deals with T1, tyrosinase derived from B16 mouse melanoma cells (Mus musculus, UniProt P11344).
T1 construct: a protein extract containing tyrosinase derived from B16 mouse melanoma cells; endogenous in cells; host or cells: B16 mouse melanoma cells, alpha-MSH induced
T1 sequence (P11344 19-533): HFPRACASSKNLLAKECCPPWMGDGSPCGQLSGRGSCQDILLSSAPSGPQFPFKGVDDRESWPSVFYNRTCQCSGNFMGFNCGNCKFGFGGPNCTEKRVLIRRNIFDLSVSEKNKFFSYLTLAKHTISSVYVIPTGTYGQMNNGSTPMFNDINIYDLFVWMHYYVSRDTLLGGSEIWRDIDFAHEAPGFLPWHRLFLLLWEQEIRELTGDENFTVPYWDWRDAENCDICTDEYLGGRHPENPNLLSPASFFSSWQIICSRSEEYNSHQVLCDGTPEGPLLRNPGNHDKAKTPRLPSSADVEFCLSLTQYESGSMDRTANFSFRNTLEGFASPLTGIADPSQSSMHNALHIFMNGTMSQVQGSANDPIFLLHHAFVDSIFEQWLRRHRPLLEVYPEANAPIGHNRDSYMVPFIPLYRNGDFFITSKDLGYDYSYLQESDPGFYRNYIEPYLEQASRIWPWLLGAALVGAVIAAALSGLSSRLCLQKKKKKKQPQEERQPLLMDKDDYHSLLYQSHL
The experiment in a line: Tyrosinase activity suppression test. Conditions: 0.05 mM or 0.1 mM at melanin induction; L-DOPA, absorbance at 490 nm corrected by protein concentration; FIG. 6.
Experimental: The tyrosinase activity inhibitory effect can be known by comparing the value of the absorbance at 490 nm corrected by the protein concentration measured by adding the test substance at the time of melanin induction and the same operation with the value of the test section to which the test substance is not added.
B16 mouse melanoma cells were seeded in a 6 well plate (2.0×10^4 cells/well), and cultured for 24 hours in D-MEM medium to which 5% fetal bovine serum was added with respect to the medium (5% CO2, 37° C.). Thereafter, α-MSH (final concentration: 200 nM) was added, and the cells were cultured in a serum-free D-MEM medium for 24 hours to induce melanin. […] The protein concentration of the obtained sample was measured by the BCA method.
The same operation was performed except that melanin induction was not performed, and a reference sample was obtained. […] Fifty μL of a sample of each test section was placed in a 96 well plate (n=3), 50 μL of 0.8 mg/mL L-DOPA was added, the mixture was reacted at 37° C. for 1 hour, and then the absorbance at 490 nm was measured with a microplate reader. The absorbance was corrected by the protein concentration, and the relative value of each test section was calculated when the measured value of the reference sample was 100. […]

Regarding `N[C@@H](CCC(=O)N[C@@H](CSSSC[C@H](NC(=O)CC[C@H](N)C(=O)O)C(=O)NCC(=O)O)C(=O)NCC(=O)O)C(=O)O` [Sample 1, oxidized glutathione trisulfide], in the assay on B16 mouse melanoma cells, the “melanin production amount compared with the reference sample (absorbance at 405 nm)” value is “significantly low”. Further, in the assay on B16 mouse melanoma cells (α-MSH 200 nM), the “concentration needed for melanin production suppressing effect compared with kojic acid (1 mM) and reduced glutathione (3 mM)” value is listed as “exhibited a melanin production suppressing effect at a lower concentration”. In the assay with Normal human fibroblasts [1], the “amount of hyaluronic acid compared with test section of only aging induction” value is recorded as “significantly higher” and the “hyaluronic acid production capability compared with test sections that did not induce aging” value was “same hyaluronic acid production capability”. For the same compound, in assay [2] (24 h, ELISA, p<0.05, FIG. 4), the “amount of hyaluronic acid compared with test section of only aging induction” value is reported as “significantly higher”. Besides, in assay [2] (no significant difference between the two groups, FIG. 4), the “hyaluronic acid production capability compared with control group in which aging is not induced” value is on record as “same hyaluronic acid production capability”. In assay [3], the “cell proliferation rate (survival rate of keratinocytes, MTT, relative value)” value is listed as “significant cell proliferation rate”. Also, the “cell proliferation rate (survival rate of fibroblasts, MTT, relative value)” value in the assay on Normal human fibroblasts [4] was “significant cell proliferation rate”. For the same compound, in assay [5], the “tyrosinase activity compared with test section in which only melanin induction was performed” value was “significantly lower” and the “tyrosinase activity compared with the reference sample (no melanin induction)” value is on record as “same degree of tyrosinase activity as the reference sample”.
For the compound `CC(=O)N[C@@H](CSSSC[C@H](NC(C)=O)C(=O)O)C(=O)O` [Sample 2, oxidized NAC trisulfide], in the assay on B16 mouse melanoma cells, the “melanin production amount compared with the reference sample (absorbance at 405 nm)” value is reported as “significantly low”. The “concentration needed for melanin production suppressing effect compared with kojic acid (1 mM) and reduced glutathione (3 mM)” value with B16 mouse melanoma cells (α-MSH 200 nM) is “melanin production can be suppressed at a lower concentration”. For the same compound, in the assay on Normal human fibroblasts [1], the “amount of hyaluronic acid compared with test section of only aging induction” value is given as “significantly higher” and the “hyaluronic acid production capability compared with test sections that did not induce aging” value is on record as “The same result was obtained”. Also, in the assay with Normal human fibroblasts [4], the “cell proliferation rate (survival rate of fibroblasts, MTT, relative value)” value is listed as “significant cell proliferation rate”.
Turning to `N[C@@H](CCC(=O)N[C@@H](CS)C(=O)NCC(=O)O)C(=O)O` [reduced glutathione, reference compound], the “melanin production suppressing effect compared with 0.02 mM test section of Sample 1” value in the assay on B16 mouse melanoma cells (reduced glutathione final concentration 3 mM, α-MSH 200 nM) is listed as “same melanin production suppressing effect”.
